The values that follow come from patent US8138218B2, “Growth hormone secretagogues” (Ipsen Pharma S.A.S., priority 2005, dated 2012).

T1 sequence (Q92847 whole entry): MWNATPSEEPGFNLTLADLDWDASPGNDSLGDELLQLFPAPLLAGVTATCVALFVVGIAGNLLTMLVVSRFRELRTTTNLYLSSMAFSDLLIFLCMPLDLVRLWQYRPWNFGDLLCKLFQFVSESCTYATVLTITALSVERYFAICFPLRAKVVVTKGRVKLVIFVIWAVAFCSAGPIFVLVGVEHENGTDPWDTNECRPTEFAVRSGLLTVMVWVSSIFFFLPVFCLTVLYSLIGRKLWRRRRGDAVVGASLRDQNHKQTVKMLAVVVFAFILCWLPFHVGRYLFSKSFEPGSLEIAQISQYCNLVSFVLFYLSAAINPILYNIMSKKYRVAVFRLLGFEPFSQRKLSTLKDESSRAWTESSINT

The test concerns the target T1, human growth hormone secretagogue receptor-1a (hGHS-R1a) (Homo sapiens, UniProt Q92847).
T1 construct: The full length hGHS-R1a was subcloned into the mammalian expression vector pcDNA 3.1; expressed in transfected cells
In words: hGHS-R1a binding assay, (125I)ghrelin displacement on CHO-K1 cell membranes. Conditions: membranes of CHO-K1 cells expressing hGHS-R1a; 0.05 nM (125I)ghrelin; sixty minute incubation at 4° C. An excerpt: A. Preparation of CHO-K1 cells expressing the human recombinant GHS receptor-1a
The cDNA for human growth hormone secretagogue receptor-1a (hGHS-R1a) was cloned by Polymerase Chain Reaction (PCR) using human brain RNA as a template (Clontech®, Palo Alto, Calif.), gene specific primers flanking the full-length coding sequence of hGHS-R1a, (S: 5′-[…]-3′ and AS: 5′-[…]-3′), and an Advantage 2 PCR Kit® (Clontech®). The PCR product was cloned into the pCR2.1 vector using an Original TA Cloning Kit® (Invitrogen®, Carlsbad, Calif.). The full length hGHS-R1a was subcloned into the mammalian expression vector pcDNA 3.1 (Invitrogen®, Carlsbad, Calif.). The plasmid was transfected into the Chinese hamster ovary cell line, CHO-K1 (American Type Culture Collection®, Rockville, Md.), by calcium phosphate method (Wigler, M et al., Cell, (1977), 11:223). Single cell clones stably expressing the hGHS-R1a were obtained by selecting transfected cells grown in cloning rings in RPMI 1640 media supplemented with 10% fetal bovine serum and 1 mM sodium pyruvate containing 0.8 mg/ml G418 (Gibco®, Grand Island, N.Y.).
B. hGHS-R1a Binding Assay:
Membranes for radioligand binding studies can be and were prepared by homogenization of the foregoing CHO-K1 cells expressing the hGHS-R1a in 20 ml of ice-cold 50 mM Tris-HCl with a Brinkman Polytron® (Westbury, N.Y.) (setting 6, 15 sec). The homogenates were washed twice by centrifugation (39,000 g/10 min) and the final pellets were re-suspended in 50 mM Tris-HCl containing 2.5 mM MgCl2 and 0.1% BSA. For the assay, aliquots (0.4 ml) were incubated with 0.05 nM (^125I)ghrelin (˜2000 Ci/mmol)(Perkin Elmer Life Sciences®, Boston, Mass.) with and without 0.05 ml of unlabeled competing test compounds of the invention. After a sixty minute incubation at 4° C., the bound (^125I)ghrelin was separated from the free by rapid filtration through GF/C filters (Brandel®, Gaithersburg, Md.) which were previously soaked in 0.5% polyethyleneimine/0.1% BSA. The filters were then washed three times with 5-ml aliquots of ice-cold 50 mM Tris-HCl and 0.1% bovine serum albumin and the bound radioactivity trapped on the filters was counted by gamma spectrometry (Wallac LKB®, Gaithersburg, Md.). Specific binding was defined as the total (^125I)ghrelin bound minus that bound in the presence of 1000 nM ghrelin
`CC(C)(N)C(=O)N[C@H](Cc1cccc2ccccc12)C(=O)N[C@H](Cc1c[nH]c2ccccc12)NC=O` [#65] gave a Ki of 16.8 nM. This lies in the double-digit nanomolar range.
The figure for `CCC(=O)N[C@@H](Cc1c[nH]c2ccccc12)NC(=O)[C@@H](Cc1csc2ccccc12)NC(=O)C(C)(C)N` [#50] is 61.5 nM; for `CC(C)(N)C(=O)N[C@H](Cc1csc2ccccc12)C(=O)N[C@@H](Cc1c[nH]c2ccccc12)OC(=O)C(F)(F)F` [#73] it is 93 nM; for `CC(C)(N)C(=O)N[C@H](Cc1csc2ccccc12)C(=O)N[C@H](Cc1c[nH]c2ccccc12)NC=O` [#1, Aib-D-Bal-DgTrp-CHO] it is 15 nM.
The compound `CC(C)(N)C(=O)N[C@H](Cc1csc2ccccc12)C(=O)N[C@H](Cc1csc2ccccc12)NC=O` [#4] yielded a Ki of 92.1 nM.
Take `CC(C)C(=O)N[C@@H](Cc1c[nH]c2ccccc12)NC(=O)[C@@H](Cc1csc2ccccc12)NC(=O)C(C)(C)N` [#51]: the affinity, expressed as Ki, was 20.2 nM.
`CC(C)(N)C(=O)N[C@H](Cc1cccc2ccccc12)C(=O)N[C@H](Cc1csc2ccccc12)NC=O` [#6] registered a Ki of 100 nM.
The result for `CC(=O)N[C@@H](Cc1c[nH]c2ccccc12)NC(=O)[C@@H](Cc1csc2ccccc12)NC(=O)C(C)(C)N` [#11, Aib-D-Bal-DgTrp-C(O)CH3] reads 38.2 nM; that for `CC(C)(N)C(=O)N[C@H](Cc1ccc2ccccc2c1)C(=O)N[C@H](Cc1csc2ccccc12)NC=O` [#7], 226 nM.
Take `O=CN[C@@H](Cc1c[nH]c2ccccc12)NC(=O)[C@@H](Cc1csc2ccccc12)NC(=O)C1CCNCC1` [#18]: the Ki stood at 120 nM.
`CC(C)(N)C(=O)N[C@H](Cc1csc2ccccc12)C(=O)N[C@H](Cc1cccc2ccccc12)NC=O` [#2] had a Ki of 236 nM.
The figure for `CC(=O)N[C@H](Cc1c[nH]c2ccccc12)NC(=O)[C@@H](Cc1csc2ccccc12)NC(=O)C(C)(C)N` [#12] is 2.56 nM; for `CC(C)(C)C(=O)N[C@@H](Cc1c[nH]c2ccccc12)NC(=O)[C@@H](Cc1csc2ccccc12)NC(=O)C(C)(C)N` [#52] it is 65.1 nM; for `CC(C)(N)C(=O)N[C@H](Cc1c[nH]c2ccccc12)C(=O)N[C@H](Cc1csc2ccccc12)NC=O` [#5] it is 279 nM.
With `O=CN[C@@H](Cc1ccc2ccccc2c1)NC(=O)[C@@H](Cc1csc2ccccc12)NC(=O)C1CCNCC1` [#20], the Ki was found to be 133 nM.

For orientation: Ki means the equilibrium dissociation constant of an inhibitor or competing ligand from its target. Higher therefore signals lower affinity.
